What was measured:
hNPFFR2 = biological target: T1, hNPFFR2 (Homo sapiens, UniProt Q9Y5X5); experiment: Radioligand binding competition, membranes from CHO cells expressing hNPFFR2; details: 0.015 nM [D-Tyr1[125I], N-MePhe3]-NPFF, 1 hr at 25° C.; for Ki: read-out: NPFF2-R Ki
T1 construct: expressed in transfected cells; membranes
Procedure: (§1) Competition experiments with membranes from CHO cells stably expressing hNPFFR1 and hNPFFR2 were performed essentially as described in Elhabazi, K., et al. Neuropharmacology, 2013. 75C, 164-171., Briefly, hNPFFR1 or hNPFFR2 membranes (5 to 10 μg of proteins) were incubated (1 hr at 25° C.; 0.25 mL total volume) with 0.015 nM [D-Tyr1[125I], N-MePhe3]-NPFF (Hartmann Analytic GmbH) in 50 mM HEPES (pH 7.4), 1 mM CaCl2, 1 mM MgCl2 and 0.1% bovine serum albumin. Non-specific binding was determined in the presence of 10 μM RFRP-3. Incubation was terminated by rapid filtration through a 96-well GF/B unifilter apparatus (Perkin Elmer Life and Analytical Sciences, Courtaboeuf, France). Unifilters were washed five times with binding buffer, then dried for 1 h at 65° C. After addition of 40 μL scintillation cocktail (Microscint-O, Perkin Elmer) per well, bound radioactivity was determined on a TopCount scintillation counter (Perkin Elmer).

hNPFFR1 = biological target: T2, hNPFFR1 (Homo sapiens, UniProt Q9GZQ6); experiment: Radioligand binding competition, membranes from CHO cells expressing hNPFFR1; details: 0.015 nM [D-Tyr1[125I], N-MePhe3]-NPFF, 1 hr at 25° C.; for Ki: read-out: NPFF1-R Ki
T2 construct: expressed in transfected cells; membranes
T2 sequence (Q9GZQ6 whole entry): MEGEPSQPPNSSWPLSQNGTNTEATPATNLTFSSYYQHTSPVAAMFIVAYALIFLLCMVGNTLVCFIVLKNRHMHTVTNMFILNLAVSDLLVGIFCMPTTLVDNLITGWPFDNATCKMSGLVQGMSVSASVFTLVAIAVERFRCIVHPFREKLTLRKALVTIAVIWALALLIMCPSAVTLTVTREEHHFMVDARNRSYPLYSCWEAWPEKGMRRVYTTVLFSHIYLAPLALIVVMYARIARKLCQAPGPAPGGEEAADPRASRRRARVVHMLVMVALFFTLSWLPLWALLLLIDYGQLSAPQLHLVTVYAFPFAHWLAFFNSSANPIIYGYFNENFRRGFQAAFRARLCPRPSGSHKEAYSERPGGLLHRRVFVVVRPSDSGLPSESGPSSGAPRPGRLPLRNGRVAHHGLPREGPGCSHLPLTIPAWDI
Procedure: as §1

[1] = biological target: T3, human NPFFR1 (hNPFFR1) receptor (Homo sapiens, UniProt Q9GZQ6); experiment: Human NPFFR1 evaluation using BRET biosensors in HEK-293 T cells; type: cell-based; details: hNPFFR1 in HEK-293 T cells, stimulated by EC80 RFRP-3, read-out: IC50 of antagonist activity
T3 construct: expressed in transfected cells; host or cells: HEK-293 T cells, transient co-transfection
T3 sequence (Q9GZQ6 whole entry): as above
Procedure: Compounds of the present invention were tested successively for their agonist and antagonist activities on human NPFFR1 (hNPFFR1) receptor transiently over-expressed in HEK-293 T cells. Compounds exert agonist activity if, by themselves in absence of neuropeptide RFRP-3 (also named NPVF) they activate hNPFFR1; and they exert antagonist activity if they decrease the action of RFRP-3 on the receptor. The assay used to measure compound activity is based on BRET (Bioluminescence Resonance Energy Transfer) biosensors and is designed to monitor the plasma membrane translocation of protein that interacts with specific Ga subunit. The specific effector (luciferase tagged: BRET donor) recruited at the membrane will be in close proximity to a plasma membrane anchor (GFP tagged: BRET acceptor) to induce a BRET signal (Ramdan et al, 2006, Chapter 5, Current Protocols in Neuroscience).
HEK-293 T cells are maintained in Dulbecco's Modified Eagle's Medium supplemented with 10% Foetal Calf Serum, 1% Penicillin/Streptomycin at 37° C./5% CO2. Cells are co-transfected using polyethylenimine (25 kDa linear) with four DNA plasmids encoding; hNPFFR1, GαoB, a Gi family specific intracellular effector fused to luciferase (BRET donor), a plasma membrane effector fused to GFP (BRET acceptor). After transfection, cells are cultured for 48 h at 37° C./5% CO2.
Receptor activity is detected by changes in BRET signal.
On the day of the assay, cells are detached using trypsin 0.05%, resuspended in assay buffer (1.8 mM CaCl2, 1 mM MgCl2, 2.7 mM KCl, 137 mM NaCl, 0.4 mM NaH2PO4, 5.5 mM D-Glucose, 11.9 mM NaHCO3, 25 mM Hepes) and seeded in 384 well plate at a density of 20,000 cells per well. Then, plates are equilibrated 3.5 hours at 37° C. before adding compounds.
Compounds and luciferase substrate are added to the cells using an automated device (Freedom Evo®, Tecan) and BRET readings are collected on EnVision (PerkinElmer) with specific filters (410 nm BW 80 nm, 515 nm BW 30 nm).
Agonist and antagonist activities of compounds are consecutively evaluated on the same cell plate. Agonist activity is first measured after 10 minutes incubation with compound alone on the cells. Then, cells are stimulated by an EC80 RFRP-3 concentration and luminescence is recorded for additional 10 minutes. EC80 RFRP-3 concentration is the concentration giving 80% of the maximal RFRP-3 response. Agonist or antagonist activities are evaluated in comparison to basal signals evoked by assay buffer or EC80 RFRP-3 alone, respectively.
For IC50 determination, a dose-response test is performed using 20 concentrations (ranging over 6 logs) of each compound. Dose-response curves are fitted using the sigmoidal dose-response (variable slope) analysis in GraphPad Prism software (GraphPad Software) and IC50 of antagonist activity is calculated. Dose-response experiments are performed in duplicate, in two independent experiments.

T1 sequence (Q9Y5X5 whole entry): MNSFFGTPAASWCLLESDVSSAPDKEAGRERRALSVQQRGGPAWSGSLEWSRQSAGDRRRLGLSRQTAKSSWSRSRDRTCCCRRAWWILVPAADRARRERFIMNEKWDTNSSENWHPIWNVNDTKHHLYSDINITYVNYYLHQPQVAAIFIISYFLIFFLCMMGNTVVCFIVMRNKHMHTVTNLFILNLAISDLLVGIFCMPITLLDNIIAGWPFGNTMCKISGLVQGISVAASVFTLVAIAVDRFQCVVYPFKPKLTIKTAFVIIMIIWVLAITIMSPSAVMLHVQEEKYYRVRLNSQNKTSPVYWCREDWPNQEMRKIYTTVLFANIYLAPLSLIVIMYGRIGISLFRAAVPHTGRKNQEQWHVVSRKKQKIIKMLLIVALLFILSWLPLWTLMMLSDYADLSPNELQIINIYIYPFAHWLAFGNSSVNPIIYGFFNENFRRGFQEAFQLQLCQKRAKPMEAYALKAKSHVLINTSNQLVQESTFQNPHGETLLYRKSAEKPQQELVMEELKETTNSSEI

| Compound | Ki (hNPFFR2) [µM] | Ki (hNPFFR1) [µM] | NPFF2-R Ki (nM) (hNPFFR2) | IC50 [1] [µM] | NPFF1-R Ki (nM) (hNPFFR1) |
| --- | --- | --- | --- | --- | --- |
| 3-(2-(piperidin-1-yl)ethoxy)pyridine-2,6-diamine [Compound 2j] | 0.45 | 0.033 |  |  |  |
| 3-(2-methoxyethoxyphenyl)pyridine-2,6-diamine [Compound 2h] | 35.7 | 0.026 |  |  |  |
| 4′-methyl-[3,4′-bipyridine]-2,6-diamine [Compound 3f] |  | 0.515 | ns |  |  |
| 5-(2-methoxyphenyl)-6-(trifluoromethoxy)pyridin-2-amine [Compound 6f] | > 10 | > 5 |  |  |  |
| Nc1ccc(-c2ccccc2Cl)c(N)n1 [Compound 1b, 3-(2-chlorophenyl)pyridine-2,6-diamine] | 1.3 | 0.039 |  | 0.5 to 1 |  |
| CCc1ccccc1-c1ccc(N)nc1N [Compound 1d, 3-(2-ethylphenyl)pyridine-2,6-diamine] | 2 | 0.0062 |  | 0.1 to 0.5 |  |
| CC(C)c1ccccc1-c1ccc(N)nc1N [Compound 1e, 3-(2-isopropylphenyl) pyridine-2,6-diamine] | 0.98 | 0.008 |  | 0.1 to 0.5 |  |
| Nc1ccc(-c2ccccc2C(F)(F)F)c(N)n1 [Compound 1f, 3-(2-(trifluoromethyl)phenyl) pyridine-2,6-diamine] | 6.7 | 0.0224 |  | 0.5 to 1 |  |
| COCc1ccccc1-c1ccc(N)nc1N [Compound 1g, 3-(2-(methoxymethyl)phenyl) pyridine-2,6-diamine] | 1.2 | 0.058 |  | 0.5 to 1 |  |
| Nc1ccc(-c2cccc(Cl)c2)c(N)n1 [Compound 1h, 3-(3-chlorophenyl)pyridine-2,6-diamine] | 0.3 | 0.09 |  | 0.5 to 1 |  |
| Nc1ccc(-c2ccc(Cl)cc2)c(N)n1 [Compound 1i, 3-(4-chlorophenyl)pyridine-2,6-diamine] | 8.8 | 0.786 |  | > 1 |  |
| Nc1ccc(-c2ccc(Cl)cc2Cl)c(N)n1 [Compound 1k, 3-(2,4-dichlorophenyl) pyridine-2,6-diamine] | 1.18 | 0.028 |  | 0.1 to 0.5 |  |
| Nc1ccc(-c2cc(Cl)ccc2Cl)c(N)n1 [Compound 1l, 3-(2,5-dichlorophenyl) pyridine-2,6-diamine] | 26.7 | 0.335 |  | 0.1 to 0.5 |  |
| Nc1ccc(-c2c(Cl)cccc2Cl)c(N)n1 [Compound 1m, 3-(2,6-dichlorophenyl) pyridine-2,6-diamine] | > 10 | 0.094 |  |  |  |
| Nc1ccc(-c2ccc(Cl)c(Cl)c2)c(N)n1 [Compound 1n, 3-(3,4-dichlorophenyl) pyridine-2,6-diamine] | 2.56 | 0.313 |  | > 1 |  |
| Nc1ccc(-c2cc(Cl)cc(Cl)c2)c(N)n1 [Compound 1o, 3-(3,5-dichlorophenyl) pyridine-2,6-diamine] | ~5 | ~0.5 |  | > 1 |  |
| Nc1ccc(-c2cccc(C(F)(F)F)c2Cl)c(N)n1 [Compound 1p, 3-(2-chloro-3-(trifluoromethyl)phenyl) pyridine-2,6-diamine] | 4.6 | 0.065 |  | 0.1 to 0.5 |  |
| Cc1c(Cl)cccc1-c1ccc(N)nc1N [Compound 1q, 3-(3-chloro-2-methylphenyl) pyridine-2,6-diamine] | 7.3 | 0.112 |  |  |  |
| Nc1ccc(-c2ccccc2-c2ccccc2)c(N)n1 [Compound 1r, 3-([1,1′-biphenyl]-2-yl)pyridine-2,6-diamine] | 0.7 | 0.0207 |  | 0.1 to 0.5 |  |
| Nc1ccc(-c2ccccc2O)c(N)n1 [Compound 2a, 2-(2,6-diaminopyridin-3-yl)phenol] | 1.1 | 0.0118 |  | 0.5 to 1 |  |
| COc1ccccc1-c1ccc(N)nc1N [Compound 2b, 3-(2-methoxyphenyl) pyridine-2,6-diamine] | 3 | 0.0138 |  | 0.1 to 0.5 |  |
| CCOc1ccccc1-c1ccc(N)nc1N [Compound 2d, 3-(2-ethoxyphenyl)pyridine-2,6-diamine] | 0.7 | 0.015 |  | 0.1 to 0.5 |  |
| CCCCOc1ccccc1-c1ccc(N)nc1N [Compound 2e, 3-(2-butoxyphenyl)pyridine-2,6-diamine] | 1.8 | 0.0105 |  | 0.1 to 0.5 |  |
| Nc1ccc(-c2ccco2)c(N)n1 [Compound 3a, 3-(furan-2-yl)pyridine-2,6-diamine] | 106 | 5.08 |  |  |  |
| Nc1ccc(-c2ccoc2)c(N)n1 [Compound 3b, 3-(furan-3-yl)pyridine-2,6-diamine] |  |  | n.s. |  | n.s. |
| Nc1ccc(-c2cc3ccccc3o2)c(N)n1 [Compound 3c, 3-(benzofuran-2-yl) pyridine-2,6-diamine] | 34 | 0.524 |  |  |  |

Next, values leading:

| Ki (hNPFFR2) [µM] | Ki (hNPFFR1) [µM] | NPFF2-R Ki (nM) (hNPFFR2) | IC50 [1] [µM] | NPFF1-R Ki (nM) (hNPFFR1) | Compound |
| --- | --- | --- | --- | --- | --- |
| 6.9 | 0.416 |  |  |  | CCCCNc1nc(N)ccc1-c1cccc(Cl)c1Cl [Compound 5c, N2-butyl-3-(2,3-dichlorophenyl)pyridine-2,6-diamine] |
| 0.8 | 0.424 |  |  |  | Nc1ccc(-c2cccc(Cl)c2Cl)c(NCCc2ccccc2)n1 [Compound 5f, 3-(2,3-dichlorophenyl)-N2-phenethylpyridine-2,6-diamine] |
|  | 0.481 | ns |  |  | COCCNc1nc(N)ccc1-c1cccc(Cl)c1Cl [Compound 5g, 3-(2,3-dichlorophenyl)-N2-(2-methoxyethyl)pyridine-2,6-diamine] |
| 3.2 | 1.92 |  |  |  | Nc1ccc(-c2cccc(Cl)c2Cl)c(NCCN2CCCCC2)n1 [Compound 5h, 3-(2,3-dichlorophenyl)-N2-(2-(piperidin-1-yl)ethyl)pyridine-2,6-diamine] |
| 6.3 | 0.44 |  |  |  | Nc1ccc(-c2cccc(Cl)c2Cl)c(N2CCCCC2)n1 [Compound 5i, 5-(2,3-dichlorophenyl)-6-(piperidin-1-yl)pyridin-2-amine] |
|  |  | ns |  | ns | COc1nc(N)ccc1-c1cccc(Cl)c1Cl [Compound 7a, 5-(2,3-dichlorophenyl)-6-methoxypyridin-2-amine] |
| > 50 | 4.08 |  |  |  | COc1cc(N)nc(N)c1-c1cccc(Cl)c1Cl [Compound 8a, 3-(2,3-dichlorophenyl)-4-methoxypyridine-2,6-diamine] |
| 1.8 | 3.24 |  |  |  | Nc1nc(N)c(-c2cccc(Cl)c2Cl)cc1F [Compound 9a, 3-(2,3-dichlorophenyl)-5-fluoropyridine-2,6-diamine] |
| 3.3 | 1.09 |  |  |  | CCc1cc(-c2cccc(Cl)c2Cl)c(N)nc1N [Compound 9b, 3-(2,3-dichlorophenyl)-5-ethylpyridine-2,6-diamine] |
| 5.4 | 0.189 |  |  |  | Nc1ccc(CCc2ccccc2)c(N)n1 [Compound 11a, 3-phenethylpyridine-2,6-diamine] |
